Patent US11723894B2, “Combination product for the treatment of neurological and/or psychiatric disorders” (Consejo Superior de Investigaciones Cientificas (CSIC), priority 2017, dated 2023)

Legend:
microglial cells = test: LPS-induced nitrite production (Griess) in primary microglial cultures; type: cell-based, rat; details: microglia; for reduction of LPS-induced nitrite in the presence of Rit: Rit 1 μM 1 h before tryptamine 1 μM, then LPS 10 μg/mL 24 h; for LPS-induced nitrite increases: tryptamine 1 μM before LPS 10 μg/mL, 24 h, vs LPS alone
Protocol: (§1) Example 8: DMT, DET, DPT and 5-MeO-DMT administration in vitro prevents inflammation in rat primary glial cells. […] Rat primary glial cell cultures were prepared from the cerebral cortex of 3 day old rats which were dissected, dissociated, and incubated with 0.25% trypsin/EDTA at 37° C. for 1 h. After centrifugation, the pellet was washed three times with HBSS (Gibco) and the cells were plated in poly-D-lysine (20 μg/mL) pretreated flasks (75 cm2). After 7-10 days, the flasks were agitated in an orbital shaker for 4 h at 230 rpm at 37° C. and non-adherent microglial cells were isolated and plated. Then Dulbecco's Modified Eagle's Medium (DMEM) was added to the flasks, which were agitated in a horizontal shaker at 260 rpm at 37° C. After overnight agitation, the supernatant (oligodendrocytes and some remaining microglial cells) was removed, and astrocytes (adherent cells) were collected. The purity of the cultures was >95%, as determined by immunofluorescence analysis using an anti-glial fibrillary acidic protein (GFAP; clone G-A-5; Sigma-Aldrich) antibody to identify astrocytes, and an anti-Iba1 (Wako Catalog No. 019-19741) antibody to identify microglial cells. On attaining semiconfluence, cells were administered each of the test tryptamines at 1 μM or with the combination test tryptamine+Ritanserin (Rit at 1 μM) 2 h before exposure to lipopolysaccharide (LPS, 10 μg/mL; Sigma-Aldrich) and kept in the presence of each drug or drug combination for 24 h. In combination studies, Rit was added to medium 1h before administration of the corresponding tryptamine. Vehicle-treated cultures were used as a control. After the 24 h drug exposure period, cultures were tested to assess nitrite release. To quantify nitrite concentrations in culture medium, supernatants of glial cultures were collected and mixed with an equal volume of Griess reagent (Sigma-Aldrich). Samples were then incubated at room temperature for 15 min and absorbance was measured at 540 nm on a microplate reader. Results are expressed as the mean±SEM of six replications in three different experiments

astrocytes = test: LPS-induced nitrite production (Griess) in primary astrocyte cultures; type: cell-based, rat; details: for reduction of LPS-induced nitrite in the presence of Rit: Rit 1 μM 1 h before tryptamine 1 μM, then LPS 10 μg/mL 24 h; for LPS-induced nitrite increases: tryptamine 1 μM before LPS 10 μg/mL, 24 h, vs LPS alone
Protocol: as §1

[1] = tested on: Human SH-SY5Y dopaminergic cells; test: 6-OHDA in vitro model of Parkinson's Disease, cell viability (MTT); type: cell-based; details: tryptamine 1 μM 1 h, then 6-OHDA 30 μM 24 h; for reduction in dopaminergic cell death in the presence of Ritanserin: Rit 1 μM 1 h; for percentage of viable dopaminergic neurons: vs 6-OHDA alone
Source text: (§2) Example 9: DMT, DET, DPT and 5-MeO-DMT prevent dopaminergic cell death and inflammation (Only Measured for DMT) caused by the potent and selective dopaminergic toxin 6-OHDA in an in vitro model of Parkinson's Disease. These desired effects are preserved in the presence of the 5-HT2A antagonist Ritanserin (Rit). The Human SH-SY5Y dopaminergic cell line was obtained from Sigma-Aldrich, cultured in 96-well plates and propagated in RPMI medium containing glutamine (1%) and 15% of fetal bovine serum (FBS) plus antibiotic (gentamicin), under humidified 5% CO2 and 95% air. On attaining semiconfluence, separate groups of cells were treated with either: a) one of the four hallucinogenic tryptamines at 1 μM for 1 h, followed by 6-OHDA at 30 μM for 24 hours; or b) Rit at 1 μM for 1h, followed one of the four hallucinogenic tryptamines at 1 μM for an additional hour, at which point 6-OHDA was administered, also at 30 μM, and kept for 24 hours. Vehicle-treated cultures were used as controls. Cell cultures were then processed to assess cell viability (for all four tryptamines) and quantification of nitrite concentration (only performed in the DMT and DMT+Rit tests). Cell viability was measured using the MTT assay (Roche Diagnostic, GmbH), which is based on the ability of viable cells to reduce yellow MTT to blue formazan. After the aforementioned 24 h period in the presence of the different tryptamines or the respective tryptamine+Rit combinations, cells were incubated with MTT (0.5 mg/ml, 4 h) and subsequently solubilized in 10% SDS/0.01 M HCl for 12 h in the dark. The extent of MTT reduction was quantified by absorbance measurement at the 595 nm wavelength, as indicated in the instructions provided by the manufacturer. Nitrite quantification: Due to access to equipment problems at the time the experiments with DET, DPT and 5-MeO-DMT were conducted, the assessment of nitrite levels in the medium could only be done for the DMT experiments. These determinations were carried out as described in Example 8. Results from the cell viability tests are expressed as the percentage of viable dopaminergic cells measured. Results from nitrite determinations are expressed as actual concentrations (μM). Results from both techniques are presented in bar graphs.

[2] = as above; type: cell-based, human; details: human, SH-SY5Y dopaminergic cells, 6-OHDA alone 30 μM 24 h
Source text: as §2

[3] = tested on: dopaminergic neurons of the Substantia nigra pars compacta; test: 6-OHDA in vivo model of Parkinson's Disease (injection into Substantia nigra pars compacta); set-up: species or system C57BL/6 mice; details: 5 μg 6-OHDA alone into SNpc, 3 weeks
Protocol: Example 10: DMT administration prevents dopaminergic cell death in a in vivo model of Parkinson's disease. Adult male C57BL/6 mice (8-12 weeks old) were used in this study. Animals were properly anaesthetized and placed in a stereotaxic apparatus (Kopf Instruments, CA). 6-OHDA (5 μg in […] PBS) was injected into the right side of the Substantia nigra pars compacta (SNpc) (coordinates from Bregma: posterior −3.2 mm; lateral +2.0 mm; ventral: +4.7 mm, according to the atlas of Paxinos and Franklin, The Mouse Brain in Stereotaxic Coordinates. 4. San Diego: Academic Press; 2012). Control animals of the same age were injected with PBS. A third group received an injection with 6-OHDA (5 μg) combined with DMT (0.1 μg) in […] PBS. Mice were then housed individually to recover and sacrificed 3 weeks later. At this point animals were anaesthetized and perfused transcardially with a 4% paraformaldehyde solution. The brains were removed, postfixed in the same solution at 4° C. overnight, cryoprotected in 20% sucrose, frozen, and 30 μm coronal sections were obtained in a cryostat. Free-floating sections were processed for double fluorescent immunohistochemistry. […] Neuronal integrity and specifically dopaminergic cell death was assessed by counting the percentage of TH^+ cells in the SNpc following a stereological approach. […] Images were analyzed using computer-assisted image analysis software (Soft Imaging System Corporation, Lakewood, Colo.). Results were expressed as the percentage of dopaminergic cell loss in the SNpc.

Row | Compound | reduction of LPS-induced nitrite in the presence of Rit (microglial cells) | LPS-induced nitrite increases (microglial cells) | reduction of LPS-induced nitrite in the presence of Rit (astrocytes) | LPS-induced nitrite increases (astrocytes) | reduction in dopaminergic cell death in the presence of Ritanserin [1] | percentage of viable dopaminergic neurons [1] | viability at 24 h, 30 μM ([2]; DET, DPT and 5-MeO-DMT experiments, read-out: cell viability, of the reference control value) | cytotoxicity at 24 h, 30 μM ([2]; DMT experiments (graph A.1), read-out: reduction in the number of viable dopaminergic cells compared to vehicle treated cultures) | average percentage of dopaminergic cell loss in the SNpc [3]
1 | COc1ccc2[nH]cc(CCN(C)C)c2c1 [5-MeO-DMT, 5-methoxy-N,N-dimethyltryptamine] | maintained | significantly reduced | maintained | significantly reduced | maintained | significant increases |  |  | 
2 | NCCc1cc(O)c(O)cc1O [6-OHDA, 6-hydroxy-dopamine, reference compound] |  |  |  |  |  |  | ~60% | 50% | 60%
3 | CCN(CC)CCc1c[nH]c2ccccc12 [DET, N,N-diethyltryptamine] | maintained | significantly reduced | maintained | significantly reduced | maintained | significant increases |  |  | 
4 | CCCN(CCC)CCc1c[nH]c2ccccc12 [DPT, N,N-dipropyltryptamine] | maintained | significantly reduced | maintained | significantly reduced | maintained | significant increases |  |  | 
